Data: article PMC12392461, “Beyond Estrogenicity: A Comparative Assessment of Bisphenol A and Its Alternatives in In Vitro Assays Questions Safety of Replacements” (Environmental Science & Technology, 2025)
Read-outs that look alike come from different tables or passages of the source.

Legend:
MCF7 (ARE/MMP) = conditions: for IC10, linear transformed / IC10, linear / logIC10: dosing range all; for IC10, MCF7, ARE: MCF7, ARE readout; for IC10, MCF7, MMP: MCF7, MMP readout; for Toxic ratio (TR) TRARE / Toxic ratio (TR) TRMMP: against baseline cytotoxicity; for Toxic ratio (TR) TRARE: ARE readout; for Toxic ratio (TR) TRMMP: MMP readout
Procedure: (§1) Cell culture conditions and bioassay protocols including response detection are provided in Text S2.1–2.4 and Table S3. − Cell viability was determined from cell confluency using an IncuCyte S3 Live-Cell Analysis System (Sartorius AG, Essen, Germany) before and after exposure, except for SH-SY5Y cells (live–dead staining with Nuclear Green LcS1 and propidium iodide, Abcam, UK). For metabolic activation experiments, cell viability was assessed using the ToxBLAzer DualScreen Kit (Thermo Fisher Scientific) to capture the remaining toxicity in ERα-UAS-bla GripTite after treatment with the aCYP catalyst (details in Text S2.4).
For ARE, the concentration that triggered an induction ratio of 1.5 (ECIR1.5) was used as the benchmark value, as detailed in Text S2.5. IC10 values also served as a threshold for data analysis in all assays; only concentrations below IC10 were considered when deriving EC10 or ECIR1.5.
We measured the cytotoxicity of BPA and its alternatives in HEK293H (PPARγ), HEK293T (ERα), H4IIe (AhR CALUX), MCF7 (ARE/MMP), and differentiated SH-SY5Y cells (Table S6). […]
S2.2: Cell Seeding and Incubation. For all bioassays, cell suspensions in the respective assay medium were dispensed into each well of 384-well plates using a MultiFlo Dispenser (Biotek, (now Agilent), Winooski, VT, U.S.). After seeding, the plates were incubated at 37° C and 5% CO₂ for […]. The final cell densities and plate types were as follows: Black poly-D-lysine […]
(§2) 6500 cells/well, ERα: 5000 cells/well. White 384-well plates with a clear bottom (Product No.
NYC, U.S.) for AhR: 3250 cells/well. Black Collagen I coated plates were used (Product No.
S2.3: Chemical Dosing and Assay Analysis Procedures. The dosing procedure and high-throughput assay workflow have been described in detail before. 9 The dosing concentrations […]
Stock solutions were then either added directly to the respective cell culture medium or evaporated under nitrogen, followed by replenishment with fresh medium. The final solvent content in each well was kept below 1% for methanol, 0% for acetonitrile.
Dosing plates were prepared as 11 -step serial dilutions using a Hamilton Microlab Star robotic system (Hamilton, Bonaduz, Switzerland), and chemicals were dosed in duplicates by transferring 10 μL twice from the dosing plates to the cell plates . After quantifying cell confluency as described in S2. 4., the exposed cells were incubated at 37° C and 5% CO₂ for an additional 24 h. All chemicals were tested in all assays with at least three independent […]
S2.4: Cell Viability Measurement s and bioanalytical protocols . The confluency as a measure of cell viability was determined with an IncuCyte S3 Live -Cell Analysis System (Sartorius AG, Essen, Germany). With this method the confluency of cells in a microscopy image are normalized to control wells without cells and compared before and after 24 hours of exposure.
This method has been described previously 13. […]

[1] = target: T1, Aryl hydrocarbon receptor (Rattus norvegicus, UniProt P41738); conditions: for EC10, linear transformed / EC10, linear / logEC10: Bioassay AhR, dosing range all; for EC10, linear: linear model fit; for logEC10: log-logistic model fit; for log(1/EC10) AhR: input of the ToxPi score, values up to 1.00; for SR-ScoreAhR: SR-Score, sigma k=1, x=5; for Specificity ratio (SRbaseline) SRAhR: against baseline cytotoxicity; for Specificity ratio (SRcytotoxicity) SRAhR: against experimental cytotoxicity; for EC10, AhR: effect
T1 sequence (P41738 10-853): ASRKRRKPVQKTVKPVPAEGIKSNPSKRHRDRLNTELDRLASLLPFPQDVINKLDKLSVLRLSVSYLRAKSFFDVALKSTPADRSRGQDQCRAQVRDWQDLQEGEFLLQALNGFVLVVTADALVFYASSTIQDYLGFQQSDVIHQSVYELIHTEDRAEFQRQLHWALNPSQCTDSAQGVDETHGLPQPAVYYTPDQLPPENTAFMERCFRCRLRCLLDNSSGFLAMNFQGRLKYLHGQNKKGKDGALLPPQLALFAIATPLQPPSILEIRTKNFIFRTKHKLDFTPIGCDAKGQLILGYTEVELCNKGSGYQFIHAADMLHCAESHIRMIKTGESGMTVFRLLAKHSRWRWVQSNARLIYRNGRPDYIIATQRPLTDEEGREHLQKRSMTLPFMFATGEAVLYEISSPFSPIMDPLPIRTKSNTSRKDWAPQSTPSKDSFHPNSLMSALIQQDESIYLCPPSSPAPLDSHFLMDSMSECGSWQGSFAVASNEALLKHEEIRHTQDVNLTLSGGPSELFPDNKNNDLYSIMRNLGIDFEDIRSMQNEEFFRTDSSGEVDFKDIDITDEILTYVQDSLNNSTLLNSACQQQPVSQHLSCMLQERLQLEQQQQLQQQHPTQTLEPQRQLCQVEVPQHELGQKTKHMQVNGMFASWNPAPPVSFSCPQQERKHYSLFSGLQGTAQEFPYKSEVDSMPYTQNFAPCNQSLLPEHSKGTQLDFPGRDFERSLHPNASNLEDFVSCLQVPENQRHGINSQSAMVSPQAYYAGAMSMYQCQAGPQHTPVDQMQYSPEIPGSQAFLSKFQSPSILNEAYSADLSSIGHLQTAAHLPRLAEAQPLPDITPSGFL
From the text: All bioassay media components and the ERα-UAS-bla GripTite and PPARγ-UAS-bla cells were obtained from Thermo Fisher Scientific (Waltham, MA, USA). AREc32 reporter gene cells based on MCF7 were provided by C. Roland Wolf (Cancer Research UK); AhR CALUX cells (H4L7.5c2 derived from H4IIe) were provided by Michael Denison (UC Davis, USA); and SH-SY5Y cells were purchased from Sigma-Aldrich.
as §1
For ARE, the concentration that triggered an induction ratio of 1.5 (ECIR1.5) was used as the benchmark value, as detailed in Text S2.5. IC10 values also served as a threshold for data analysis in all assays; only concentrations below IC10 were considered when deriving EC10 or ECIR1.5. […]
S2: Cell culture and bioassays
S2.1: Cell Culturing Conditions
All suppliers and sources are given in detail in SI-Excel S3. The bioassay media for the different assays were prepared as follows: Assay medium for ER alpha-UAS-bla GripTite (ERα) and PPAR gamma-UAS-bla 293H (PPARγ) was prepared with 98% Opti-MEM, supplemented with 2% charcoal-stripped FBS, and 100 U/mL penicillin-streptomycin. MitoOxTox and AhR assay medium was comprised of 90% DMEM with GlutaMAX, supplemented with 10% FBS, and 100 U/mL penicillin-streptomycin. Neurotoxicity assay medium consisted of the neurobasal […]
(1 picture or pasted object on this page, not shown here) […]
medium, supplemented with 2% B-27 Supplement and 2 mM GlutaMAX Supplement. SH - SY5Y cells were differentiated with 10 µM all-trans retinoic acid prior to the assay.
S2.2: Cell Seeding and Incubation. For all bioassays, cell suspensions in the respective assay medium were dispensed into each well of 384-well plates using a MultiFlo Dispenser (Biotek, (now Agilent), Winooski, VT, U.S.). After seeding, the plates were incubated at 37° C and 5% CO₂ for […]. The final cell densities and plate types were as follows: Black poly-D-lysine coated 384-well plates (Product No. 354663, Corning Inc., NYC, U.S.) were used for PPARγ:
as §2
781098, Greiner, Kremsmünster, Austria) were utilized for the MitoOxTox assay: 2650

[2] = Bioassay ARE, cytotoxicity, linear model fit
[3] = Bioassay ARE, cytotoxicity, log-logistic model fit
[4] = MMP bioassay cytotoxicity, linear model
[5] = MMP bioassay cytotoxicity, log-logistic model

Row | Compound | IC10, linear transformed (MCF7 (ARE/MMP); Bioassay ARE, cytotoxicity) | IC10, linear (MCF7 (ARE/MMP); [2]) | logIC10 (MCF7 (ARE/MMP); [3]) | IC10, linear transformed (MCF7 (ARE/MMP); MMP bioassay cytotoxicity) | IC10, linear (MCF7 (ARE/MMP); [4]) | logIC10 (MCF7 (ARE/MMP); [5]) | IC10, MCF7, ARE (MCF7 (ARE/MMP); cytotoxicity) | IC10, MCF7, MMP (MCF7 (ARE/MMP); cytotoxicity) | EC10, linear transformed [1] | EC10, linear [1] | logEC10 [1] | log(1/EC10) AhR [1] | Toxic ratio (TR) TRARE (MCF7 (ARE/MMP)) | Toxic ratio (TR) TRMMP (MCF7 (ARE/MMP)) | EC10, AhR (M) [1] | SR-ScoreAhR [1] | Specificity ratio (SRbaseline) SRAhR [1] | Specificity ratio (SRcytotoxicity) SRAhR [1] | EC10, AhR [1]
1 | Oc1ccc(Cc2ccc(O)cc2)cc1 [BPF, Bis(4-hydroxyphenyl)methane] | 6.56E-04 | 6.90E-04 | -3.18 | 5.26E-04 | 5.00E-04 | -3.28 | 656 µM | 526 µM | 2.17E-04 | 1.67E-04 | masked by cytotoxicity | 0.66 | – | – | – | – | – | – | –
2 | CC(C)c1cc(C(C)(C)c2ccc(O)c(C(C)C)c2)ccc1O [BPG, 2,2-Bis(4-hydroxy-3-isopropylphenyl)propane] | 6.03E-06 | 7.17E-06 | -5.22 | 8.72E-06 | 8.88E-06 | -5.06 | 6.03 µM | 8.72 µM | – | no effect | no effect | 0.96 | 0.88 | 0.61 | – | – | – | – | –
3 | CC(C)(c1ccc(O)c(-c2ccccc2)c1)c1ccc(O)c(-c2ccccc2)c1 [BPPH, 2,2-Bis(2-hydroxy-5-biphenylyl)propane] | 2.86E-06 | 5.76E-06 | -5.54 | 7.75E-06 | 5.66E-06 | -5.11 | 2.86 µM | 7.75 µM | 9.38E-06 | 9.54E-06 | -5.02 | 0.99 | 1.43 | 0.53 | 9.54 × 10^–6 M | 0.0254 | 0.43 | 1.35 | 9.54 µM
4 | O=S(=O)(c1ccc(O)cc1)c1ccc(O)cc1 [BPS, 4,4'-Sulfonyldiphenol] | 1.39E-03 | 1.31E-03 | -2.86 | 1.22E-03 | 1.44E-03 | -2.92 | 1390 µM | 1220 µM | – | no effect | no effect | 0.68 | – | – | – | – | – | – | –
5 | C=CCOc1ccc(S(=O)(=O)c2ccc(O)cc2)cc1 [BPS-MAE, 4-[[4-(Allyloxy)phenyl]sulfonyl]phenol] | 3.86E-04 | 4.93E-04 | -3.41 | 8.44E-04 | 1.02E-03 | -3.07 | 386 µM | 844 µM | – | no effect | no effect | 0.71 | – | – | – | – | – | – | –
6 | O=S(=O)(c1ccc(O)cc1)c1ccc(OCc2ccccc2)cc1 [BPS-MPE, 4-[4-(benzyloxy)benzenesulfonyl]phenol] | 7.91E-05 | 1.19E-04 | -4.10 | 1.23E-04 | 1.88E-04 | -3.91 | 79.1 µM | 123 µM | – | no effect | no effect | 0.91 | 0.45 | 0.29 | – | – | – | – | –
7 | Oc1ccc(Sc2ccc(O)cc2)cc1 [BPT, 4,4'-Thiodiphenol] | 1.75E-04 | 3.07E-04 | -3.76 | 2.05E-04 | 2.97E-04 | -3.69 | 175 µM | 205 µM | 9.56E-05 | no effect | masked by cytotoxicity | 0.82 | – | – | – | – | – | – | –
8 | Cc1ccc(S(=O)(=O)NC(=O)Nc2ccc(Cc3ccc(NC(=O)NS(=O)(=O)c4ccc(C)cc4)cc3)cc2)cc1 [BTUM, 4,4'-Bis(p-tolylsulfonylureido)diphenylmethane] | – | no cytotoxicity | no cytotoxicity | – | no cytotoxicity | no cytotoxicity | – | – | – | no effect | no effect | – | – | – | – | – | – | – | –
9 | COC(=O)C(c1ccc(O)cc1)c1ccc(O)cc1 [Bz, Methyl bis(4-hydroxyphenyl)acetate] | 4.96E-04 | 3.89E-04 | -3.30 | 3.45E-04 | 3.44E-04 | -3.46 | 496 µM | – | 5.80E-05 | 6.20E-05 | -3.94 | – | 0.70 | – | 6.20 × 10^–5 M | 0.0375 | 5.57 | 1.75 | 62 µM
